In paper PMC6131351, “Pharmacological difference between degrader and inhibitor against oncogenic BCR-ABL kinase” (Scientific Reports, 2018):

Experiments:
BCR-ABL protein = target: T1, BCR-ABL protein (Homo sapiens, UniProt P00519+P11274); experiment: Protein knockdown by western blot in K562 cells; assay type: cell-based; settings: 6 h
T1 construct: examined for their activity to degrade BCR-ABL in K562 cells for 6 h; BCR (fusion partner, P11274, N-terminal part); endogenous in cells; host or cells: K562
T1 sequence (P11274+P00519 fused): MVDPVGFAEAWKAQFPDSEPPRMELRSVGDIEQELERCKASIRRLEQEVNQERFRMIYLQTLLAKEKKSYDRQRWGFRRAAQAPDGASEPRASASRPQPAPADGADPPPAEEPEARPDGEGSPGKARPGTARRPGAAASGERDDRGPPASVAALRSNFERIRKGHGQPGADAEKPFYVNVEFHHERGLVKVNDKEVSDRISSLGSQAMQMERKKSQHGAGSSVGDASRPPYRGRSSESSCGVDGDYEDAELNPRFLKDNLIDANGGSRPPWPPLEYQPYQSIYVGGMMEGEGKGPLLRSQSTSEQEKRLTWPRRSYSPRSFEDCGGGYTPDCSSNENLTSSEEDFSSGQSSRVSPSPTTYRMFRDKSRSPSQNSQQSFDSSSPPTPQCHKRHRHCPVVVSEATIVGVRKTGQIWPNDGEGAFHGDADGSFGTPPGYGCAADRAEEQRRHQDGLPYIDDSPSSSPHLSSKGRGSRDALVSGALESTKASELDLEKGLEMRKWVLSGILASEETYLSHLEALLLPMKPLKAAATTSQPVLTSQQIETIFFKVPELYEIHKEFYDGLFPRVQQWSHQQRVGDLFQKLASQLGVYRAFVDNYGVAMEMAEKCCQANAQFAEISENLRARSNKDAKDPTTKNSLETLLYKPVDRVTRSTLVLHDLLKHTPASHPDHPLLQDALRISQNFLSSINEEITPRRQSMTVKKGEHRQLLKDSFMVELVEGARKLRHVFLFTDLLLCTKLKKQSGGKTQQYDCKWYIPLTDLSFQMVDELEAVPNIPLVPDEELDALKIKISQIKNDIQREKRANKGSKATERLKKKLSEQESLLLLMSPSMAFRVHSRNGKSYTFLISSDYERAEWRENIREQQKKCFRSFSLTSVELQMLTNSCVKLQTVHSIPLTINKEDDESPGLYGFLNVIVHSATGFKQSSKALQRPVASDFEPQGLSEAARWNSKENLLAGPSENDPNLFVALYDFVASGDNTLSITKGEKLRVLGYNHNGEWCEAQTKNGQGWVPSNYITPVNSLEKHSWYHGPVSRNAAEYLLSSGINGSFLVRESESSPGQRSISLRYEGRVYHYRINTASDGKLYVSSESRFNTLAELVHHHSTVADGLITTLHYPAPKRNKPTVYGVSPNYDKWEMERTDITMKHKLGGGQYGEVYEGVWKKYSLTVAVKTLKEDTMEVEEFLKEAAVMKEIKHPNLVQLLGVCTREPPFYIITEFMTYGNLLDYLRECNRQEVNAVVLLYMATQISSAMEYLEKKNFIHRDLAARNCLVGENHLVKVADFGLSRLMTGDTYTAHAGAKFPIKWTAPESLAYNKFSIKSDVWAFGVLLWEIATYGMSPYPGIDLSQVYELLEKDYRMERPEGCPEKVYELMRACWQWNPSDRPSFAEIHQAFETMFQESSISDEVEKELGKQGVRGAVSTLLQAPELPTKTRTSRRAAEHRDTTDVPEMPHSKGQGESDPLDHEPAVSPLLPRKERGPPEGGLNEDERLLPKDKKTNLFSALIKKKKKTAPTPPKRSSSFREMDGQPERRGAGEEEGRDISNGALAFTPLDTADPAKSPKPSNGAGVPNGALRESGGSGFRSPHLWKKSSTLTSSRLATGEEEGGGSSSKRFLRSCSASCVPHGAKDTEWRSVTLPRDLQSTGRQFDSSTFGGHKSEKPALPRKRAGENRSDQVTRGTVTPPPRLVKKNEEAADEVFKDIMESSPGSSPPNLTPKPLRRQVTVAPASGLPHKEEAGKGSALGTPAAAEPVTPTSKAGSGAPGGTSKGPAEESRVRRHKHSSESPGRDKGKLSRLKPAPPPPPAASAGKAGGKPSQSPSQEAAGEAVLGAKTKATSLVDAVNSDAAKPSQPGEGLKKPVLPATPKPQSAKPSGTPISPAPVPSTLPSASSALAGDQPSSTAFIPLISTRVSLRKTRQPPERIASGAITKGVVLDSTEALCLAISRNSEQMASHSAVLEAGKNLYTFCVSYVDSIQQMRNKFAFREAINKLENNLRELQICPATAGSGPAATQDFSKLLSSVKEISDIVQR
Protocol: Cells were collected and lysed in a lysis buffer (0.5% Triton X-100, 0.01 M Tris-HCl (pH 7.5), 0.15 M NaCl, Complete Mini protease inhibitor cocktail (Roche Applied Science, Indianapolis, IL, USA) and PhosStop phosphatase inhibitor cocktail (Roche Applied Science)). Protein concentrations were measured by the BCA method (Thermo Fisher Scientific) and an equal amount of protein lysate was separated by SDS-PAGE, transferred to polyvinylidene difluoride membranes (Merck Millipore) and analyzed by western blot using an appropriate antibody. The immunoreactive proteins were visualized using Clarity Western ECL substrate (Bio-Rad, Hercules, CA, USA) and their light emission was quantified with a LAS-3000 lumino-image analyzer (Fuji, Tokyo, Japan).

K562 cells = experiment: Washout experiment, cell counting of K562 cells; assay type: cell-based, Human; settings: washed; for growth of K562 cells after drug removal: 25 or 50 times IC50 for 12 h, drug-free medium for 6 d
Protocol: Cells were seeded at a concentration of 2 × 10^6 cells per 10-cm tissue culture dish and treated with the indicated compounds for the indicated times. Then, the cells were washed three times to remove the compounds, and incubated in drug-free medium for the indicated times.

| BCR-ABL, cIAP1 and XIAP protein levels (BCR-ABL protein) | knockdown activity against the BCR-ABL protein (BCR-ABL protein; 1-300 nM) | SMILES | growth of K562 cells after drug removal (K562 cells) | K562 cell number after drug removal (K562 cells; 50 times IC50 for 12 h, drug-free medium) |
| --- | --- | --- | --- | --- |
| reduced | effective knockdown activity | CN[C@@H](C)C(=O)N[C@H](C(=O)N1CCC[C@H]1c1nc(C(=O)c2cccc(OCCOCCOCCOCC(=O)N3CCN(c4cc(Nc5ncc(C(=O)Nc6c(C)cccc6Cl)s5)nc(C)n4)CC3)c2)cs1)C1CCCCC1 [DAS-IAP] | markedly inhibited the growth | decreased continuously |
| did not reduce |  | CN[C@@H](C)C(=O)N(C)[C@H](C(=O)N1CCC[C@H]1c1nc(C(=O)c2cccc(OCCOCCOCCOCC(=O)N3CCN(c4cc(Nc5ncc(C(=O)Nc6c(C)cccc6Cl)s5)nc(C)n4)CC3)c2)cs1)C1CCCCC1 [DAS-meIAP] | slightly delayed the growth |  |
